Laboratory results as given in US10626106B2, “Substituted pyrrolidine amides I” (Gruenenthal GmbH, priority 2017, dated 2020).
Where two headings read alike, the source gives them in different places.

Target: T1, Human Glucocorticoid Receptor (hGR) (Homo sapiens, UniProt P04150)
T1 construct: the resultant supernatant (=cytosol of IM9 cells) was centrifuged at 103,000 g for 60 minutes; host or cells: IM9 human lymphoblast cell line (cytosol fraction)
T1 sequence (P04150 1-777): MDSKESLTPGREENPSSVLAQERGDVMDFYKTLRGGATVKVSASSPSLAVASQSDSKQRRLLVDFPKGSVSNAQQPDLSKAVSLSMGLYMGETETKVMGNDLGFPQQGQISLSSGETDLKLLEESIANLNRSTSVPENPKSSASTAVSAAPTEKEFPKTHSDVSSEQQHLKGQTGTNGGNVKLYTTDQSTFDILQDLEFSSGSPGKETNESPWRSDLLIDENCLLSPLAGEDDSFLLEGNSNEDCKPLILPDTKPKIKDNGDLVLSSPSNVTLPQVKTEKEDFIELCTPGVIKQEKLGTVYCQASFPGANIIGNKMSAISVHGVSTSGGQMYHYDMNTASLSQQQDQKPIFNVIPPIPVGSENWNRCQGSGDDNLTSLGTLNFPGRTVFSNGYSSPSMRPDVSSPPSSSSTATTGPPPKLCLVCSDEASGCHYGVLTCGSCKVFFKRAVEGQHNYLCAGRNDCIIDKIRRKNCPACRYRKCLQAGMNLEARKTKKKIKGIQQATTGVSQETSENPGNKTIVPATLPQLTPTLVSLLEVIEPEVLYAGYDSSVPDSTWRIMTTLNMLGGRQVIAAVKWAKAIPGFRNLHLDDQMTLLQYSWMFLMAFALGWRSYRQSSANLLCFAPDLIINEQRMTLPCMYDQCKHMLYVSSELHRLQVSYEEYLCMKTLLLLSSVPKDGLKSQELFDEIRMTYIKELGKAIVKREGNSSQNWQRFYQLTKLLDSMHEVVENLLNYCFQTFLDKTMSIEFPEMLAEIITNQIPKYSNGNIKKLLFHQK
Assay: Human Glucocorticoid Receptor (hGR) Ligand-Binding Assay (competitive 3H-dexamethasone binding, IM9 cytosol)
Conditions: read-out: % inhibition hGR at 1 μM
From the text: Human Glucocorticoid Receptor (hGR) Ligand-Binding Assay
Potential selective glucocorticoid receptor modulators of this intervention can be tested for their binding affinity at the glucocorticoid receptor using the binding assay described below.
Preferably, the glucocortitcoid receptor extracted from cytosol of IM9 cells is used for competitive radioligand binding assays to calculate the IC50 values and binding affinity (Ki value) of the compounds according to the present invention. Preferably, a fixed concentration of the radioligand 3H-dexamethasone and a range of concentrations of compounds according to the present invention (as unlabeled competitors of dexamethasone) are mixed with the extracted glucocorticoid receptor in order to measure the potency/affinity with which they compete for the binding of the radioligand. Preferably, by using competition curves the IC50 which is the concentration of competing ligand that displaces 50% of the specific binding of the radioligand is determined. Finally this IC50 value is converted to a Ki value.
The human lymphoblast cell line IM9 (ATCC, Bethesda, Md.) were cultivated in RPMI 1640 media containing 10% fetal bovine serum, penicillin (100 U/ml), streptomycin (100 μg/ml), and 2 mM L-glutamine at […] and 7% CO2 in a humidified incubator. Cells were centrifuged for 10 minutes at 1500 g and were washed in PBS and repelleted. Cell were then resuspended in homogenization buffer consisting of: 10 mM TES, 10 mM sodium molybdate, 1 mM EDTA, pH 7.4, 20 mM 2-mercaptoethanol, and 10% glycerol. Disruption of the cells was performed by nitrogen cavitation using 2×15 minutes at 600 to 750 psi nitrogen in a N2 cavitator at 0° C. The cell preparation was then centrifuged at 27,000 g for 15 minutes, and the resultant supernatant (=cytosol of IM9 cells) was centrifuged at 103,000 g for 60 minutes at 4° C. The amount of protein in the supernatant fraction was determined using a BCA assay kit and aliquots were snap frozen in a dry ice-acetone bath and stored at −70° C. Competitive binding assays were done in duplicate in homogenization buffer with a total volume of 200 μl. To this end, 1 mg of IM9 cytosol, 0.05 μCi (1.5 nM) of 3H-dexamethasone […] and compounds according to the present invention (=unlabeled competitors of dexamethasone; range of concentrations) were mixed. The reaction was stopped after incubation at 0° C. for 16 to 18 hours by the addition of 100 μl of a charcoal-dextran mixture (2% activated charcoal, 0.5% dextran in 10 mM Tris, 1 mM EDTA, pH 7.4). Another incubation step at 0° C. for 10 minutes followed before the samples were centrifuged for 5 minutes at 8200 g. 100 μl of the supernatant) was finally assayed for radioactivity by liquid scintillationspectrometry, and the IC50 values were determined graphically and were converted to Ki values.

[1] = compound at 1 μM, competition with 3H-dexamethasone, cytosol of IM9 cells

Structure (SMILES)	inhibition at 1 µM [1] [%]	inhibition at 1 µM [%]
COc1ccc(-n2ncc3cc(N4C(=O)C[C@H](NC(=O)C(C)(F)F)C4c4ccccc4)ccc32)cn1 (stereo in doubt) [Example 22, trans-2,2-difluoro-N-(1-(1-(6-methoxypyridin-3-yl)-1H-indazol-5-yl)-5-oxo-2-phenylpyrrolidin-3-yl)propanamide]	60 to 85	–
CC(F)(F)C(=O)N[C@H]1CC(=O)N(c2ccc3c(cnn3-c3ccncc3)c2)C1c1ccccc1 (stereo in doubt) [Example 23, trans-2,2-difluoro-N-(5-oxo-2-phenyl-1-(1-(pyridin-4-yl)-1H-indazol-5-yl)pyrrolidin-3-yl)propanamide]	–	> 85
CC(F)(F)C(=O)N[C@H]1CC(=O)N(c2ccc3c(cnn3-c3cccnc3)c2)C1c1ccccc1 (stereo in doubt) [Example 7, trans-2,2-difluoro-N-(5-oxo-2-phenyl-1-(1-(pyridin-3-yl)-1H-indazol-5-yl)pyrrolidin-3-yl)propanamide]	–	> 85
Cn1ccc(Cn2ncc3cc(N4C(=O)C[C@H](NC(=O)C(C)(F)F)C4c4ccccc4)ccc32)n1 (stereo in doubt) [Example 32, trans-2,2-difluoro-N-(1-(1-((1-methyl-1H-pyrazol-3-yl)methyl)-1H-indazol-5-yl)-5-oxo-2-phenylpyrrolidin-3-yl)propanamide]	60 to 85	–
COc1ccc(Cn2ncc3cc(N4C(=O)C[C@H](NC(=O)C(C)(F)F)[C@H]4c4ccccc4)ccc32)cn1 (relative stereo) [Example 33, trans-2,2-difluoro-N-(1-(1-((6-methoxypyridin-3-yl)methyl)-1H-indazol-5-yl)-5-oxo-2-phenylpyrrolidin-3-yl)propanamide]	> 85	–
CC(F)(F)C(=O)N[C@H]1CC(=O)N(c2ccc3c(cnn3C3CCN(C(=O)C4CC4)CC3)c2)C1c1ccccc1 (stereo in doubt) [Example 35, trans-2,2-difluoro-N-(1-(1-(1-(cyclopropanecarbonyl)piperidin-4-yl)-1H-indazol-5-yl)-5-oxo-2-phenylpyrrolidin-3-yl)propanamide]	60 to 85	–
Cn1cc(-n2ncc3cc(N4C(=O)C[C@H](NC(=O)C(C)(F)F)C4c4ccc(F)cc4F)ccc32)ccc1=O (stereo in doubt) [Example 2, trans-2,2-difluoro-N-(5-oxo-2-(2,4-difluorophenyl)-1-(1-(1-methyl-6-oxo-1,6-dihydropyridin-3-yl)-1H-indazol-5-yl)pyrrolidin-3-yl)propanamide]	> 85	–
Cn1cc(Cn2ncc3cc(N4C(=O)C[C@H](NC(=O)C(C)(F)F)C4c4ccccc4)ccc32)ccc1=O (stereo in doubt) [Example 34, trans-2,2-difluoro-N-(1-(1-((1-methyl-6-oxo-1,6-dihydropyridin-3-yl)methyl)-1H-indazol-5-yl)-5-oxo-2-phenylpyrrolidin-3-yl)propanamide]	40 to 60	–
Cc1ccc(-n2ncc3cc(N4C(=O)C[C@H](NC(=O)C(C)(F)F)C4c4ccccc4)ccc32)cn1 (stereo in doubt) [Example 24, trans-2,2-difluoro-N-(1-(1-(6-methylpyridin-3-yl)-1H-indazol-5-yl)-5-oxo-2-phenylpyrrolidin-3-yl)propanamide]	–	60 to 85

The next lines start with results.

inhibition at 1 µM [1] [%]	Structure (SMILES)	inhibition at 1 µM [%]
40 to 60	Cc1ccccc1[C@@H]1[C@@H](NC(=O)C2CC2)CC(=O)N1c1ccc2c(cnn2-c2ccc(=O)n(C)c2)c1 [Example 41, N-((2R,3S)-1-(1-(1-methyl-6-oxo-1,6-dihydropyridin-3-yl)-1H-indazol-5-yl)-5-oxo-2-(o-tolyl)pyrrolidin-3-yl)cyclopropanecarboxamide]	–
60 to 85	Cn1cc(-n2ncc3cc(N4C(=O)C[C@H](NC(=O)c5cscn5)[C@H]4c4ccccc4)ccc32)ccc1=O [Example 44, N-[(2R,3S)-1-[1-(1-methyl-6-oxo-3-pyridyl)indazol-5-yl]-5-oxo-2-phenyl-pyrrolidin-3-yl]thiazole-4-carboxamide]	–
60 to 85	Cn1cc(-n2ncc3cc(N4C(=O)C[C@H](NC(=O)c5cocn5)[C@H]4c4ccccc4)ccc32)ccc1=O [Example 50, N-[(2R,3S)-1-[1-(1-methyl-6-oxo-3-pyridyl)indazol-5-yl]-5-oxo-2-phenyl-pyrrolidin-3-yl]oxazole-4-carboxamide]	–
> 85	Cn1cc(-n2ncc3cc(N4C(=O)C[C@H](NC(=O)C(C)(F)F)[C@H]4c4cccc(F)c4)ccc32)ccc1=O [Example 5, 2,2-difluoro-N-((2R,3S)-2-(3-fluorophenyl)-1-(1-(1-methyl-6-oxo-1,6-dihydropyridin-3-yl)-1H-indazol-5-yl)-5-oxopyrrolidin-3-yl)propanamide]	–
60 to 85	Cn1cc(-n2ncc3cc(N4C(=O)C[C@H](NC(=O)C5CC5)[C@H]4c4ccccc4F)ccc32)ccc1=O [Example 39, N-((2R,3S)-2-(2-fluorophenyl)-1-(1-(1-methyl-6-oxo-1,6-dihydropyridin-3-yl)-1H-indazol-5-yl)-5-oxopyrrolidin-3-yl)cyclopropanecarboxamide]	–
60 to 85	Cn1ccc(C(=O)N[C@H]2CC(=O)N(c3ccc4c(cnn4-c4ccc(=O)n(C)c4)c3)[C@@H]2c2ccccc2)n1 [Example 45, 1-methyl-N-[(2R,3S)-1-[1-(1-methyl-6-oxo-3-pyridyl)indazol-5-yl]-5-oxo-2-phenyl-pyrrolidin-3-yl]pyrazole-3-carboxamide]	–
60 to 85	Cn1cc(-n2ncc3cc(N4C(=O)C[C@H](NC(=O)[C@H]5CCCO5)[C@H]4c4ccccc4)ccc32)ccc1=O [Example 48, (R)—N-[(2R,3S)-1-[1-(1-methyl-6-oxo-3-pyridyl)indazol-5-yl]-5-oxo-2-phenyl-pyrrolidin-3-yl]tetrahydrofuran-2-carboxamide]	–
> 85	Cn1cc(-n2ncc3cc(N4C(=O)C[C@H](NC(=O)c5ncco5)[C@H]4c4ccccc4)ccc32)ccc1=O [Example 49, N-[(2R,3S)-1-[1-(1-methyl-6-oxo-3-pyridyl)indazol-5-yl]-5-oxo-2-phenyl-pyrrolidin-3-yl]oxazole-2-carboxamide]	–
> 85	Cc1nc(C(=O)N[C@H]2CC(=O)N(c3ccc4c(cnn4-c4ccc(=O)n(C)c4)c3)[C@@H]2c2ccccc2)no1 [Example 51, 5-methyl-N-[(2R,3S)-1-[1-(1-methyl-6-oxo-3-pyridyl)indazol-5-yl]-5-oxo-2-phenyl-pyrrolidin-3-yl]-1,2,4-oxadiazole-3-carboxamide]	–
> 85	Cn1cc(-n2ncc3cc(N4C(=O)C[C@H](NC(=O)C5(F)CC5)[C@H]4c4ccccc4)ccc32)ccc1=O [Example 18, 1-fluoro-N-((2R,3S)-1-(1-(1-methyl-6-oxo-1,6-dihydropyridin-3-yl)-1H-indazol-5-yl)-5-oxo-2-phenylpyrrolidin-3-yl)cyclopropanecarboxamide]	–
> 85	Cn1cc(-n2ncc3cc(N4C(=O)C[C@H](NC(=O)C(C)(F)F)[C@H]4c4cccc(Cl)c4)ccc32)ccc1=O [Example 1, N-((2R,3S)-2-(3-chlorophenyl)-1-(1-(1-methyl-6-oxo-1,6-dihydropyridin-3-yl)-1H-indazol-5-yl)-5-oxopyrrolidin-3-yl)-2,2-difluoropropanamide]	–
